Laboratory results: ChEMBL document CHEMBL1201862, “PubChem BioAssay data set” (2004)
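Each compound was tested at five concentrations against cells in 96-well plates for 48 hours. At the GI50, growth is halved.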 Active and inactive are the calls of the source. Cut-off read from the data, not from the text of the source: active = GI50 up to about 1.1 µM and inactive = higher.

Tests used:
Test in all cases: NCI anticancer screen, dose series, 48 h
NCI-H522 = system: NCI-H522
SNB-78 = system: SNB-78
HOP-62 = system: HOP-62
HOP-92 = system: HOP-92
SK-MEL-28 = system: SK-MEL-28
NCI-H23 = system: NCI-H23
HT-29 = system: HT-29
M19-MEL = system: M19-MEL
UACC-257 = system: UACC-257
CCRF-CEM = system: CCRF-CEM
UO-31 = system: UO-31
SK-MEL-5 = system: SK-MEL-5
A498 = system: A498
SNB-75 = system: SNB-75
EKVX = system: EKVX
OVCAR-8 = system: OVCAR-8
SF-539 = system: SF-539
SF-295 = system: SF-295
786-0 = system: 786-0
Hs-578T = system: Hs-578T

Measured: GI50

Cc1nc(C(N)=S)sc1C(=O)CC(=O)C(=O)Nc1c(C(C)C)cccc1C(C)C
inactive: NCI-H522 18 µM | SNB-78 66.2 µM | HOP-62 86.9 µM | HOP-92 26.9 µM | SK-MEL-28 > 100 µM | NCI-H23 30.1 µM | HT-29 37.3 µM | M19-MEL 34.1 µM | UACC-257 60.4 µM | CCRF-CEM 44.7 µM | UO-31 39.3 µM | SK-MEL-5 54.6 µM | A498 71 µM | SNB-75 25.2 µM | EKVX > 100 µM | OVCAR-8 36 µM | SF-539 44.4 µM | SF-295 29.2 µM | 786-0 50.4 µM

N#CC(C(=O)CCC(=O)Nc1cccc(C(F)(F)F)c1)c1ccccc1 (stereo unspecified)
inactive: NCI-H522 > 100 µM | SNB-78 > 100 µM | HOP-62 > 100 µM | HOP-92 > 100 µM | SK-MEL-28 > 100 µM | NCI-H23 > 100 µM | HT-29 > 100 µM | M19-MEL > 100 µM | UACC-257 > 100 µM | CCRF-CEM > 100 µM | UO-31 > 100 µM | SK-MEL-5 > 100 µM | A498 > 100 µM | SNB-75 > 100 µM | EKVX > 100 µM | OVCAR-8 > 100 µM | SF-539 > 100 µM | SF-295 > 100 µM | 786-0 > 100 µM

CN(C)CCNC(=O)c1cccc2nc3c4ccccc4c4ccccc4c3nc12
inactive: NCI-H522 2.71 µM | SNB-78 14.8 µM | HOP-62 16.2 µM | HOP-92 7.82 µM | SK-MEL-28 1.79 µM | Hs-578T 1.31 µM | NCI-H23 1.87 µM | HT-29 1.51 µM | M19-MEL 1.88 µM | UACC-257 3.86 µM | CCRF-CEM 1.13 µM | UO-31 9.44 µM | SK-MEL-5 3.37 µM | A498 7 µM | SNB-75 2.52 µM | EKVX 5.77 µM | OVCAR-8 2.02 µM | SF-539 1.72 µM | SF-295 2.16 µM | 786-0 2.28 µM

c1ccc(C2=NOC3C4CCC(C4)C23)cc1 (stereo unspecified)
inactive: NCI-H522 > 100 µM | SNB-78 > 100 µM | HOP-62 > 100 µM | HOP-92 > 100 µM | SK-MEL-28 > 100 µM | NCI-H23 > 100 µM | HT-29 > 100 µM | M19-MEL > 100 µM | UACC-257 > 100 µM | CCRF-CEM > 100 µM | UO-31 > 100 µM | SK-MEL-5 > 100 µM | A498 > 100 µM | SNB-75 > 100 µM | EKVX > 100 µM | OVCAR-8 > 100 µM | SF-539 > 100 µM | SF-295 > 100 µM | 786-0 > 100 µM

O=C1Nc2cc([N+](=O)[O-])c(Br)cc2C1=O
inactive: NCI-H522 16.6 µM | SNB-78 23.3 µM | HOP-62 28.4 µM | HOP-92 24.5 µM | SK-MEL-28 21.3 µM | NCI-H23 17.3 µM | HT-29 20.2 µM | M19-MEL 16.4 µM | UACC-257 18 µM | CCRF-CEM 6.01 µM | UO-31 18.5 µM | SK-MEL-5 21.1 µM | A498 > 100 µM | SNB-75 19 µM | EKVX 22.4 µM | OVCAR-8 16.4 µM | SF-539 22.4 µM | SF-295 3.68 µM | 786-0 18.5 µM
